Assay results: US20040110769A1, “Farnesyl protein transferase inhibitor combinations with antiestrogen agents” (priority 2003, published 2004)
Several values for one entry are separate records, joined by “and”; a condition that tells them apart may be missing. Equal values may be shown once.

Test system: MCF7 human breast carcinoma cells
Experiment: Anti-tumor activity in established MCF-7 human breast tumor xenografts in nude mice
Format: in vivo
Conditions: MCF-7 xenograft in female nude mice, individual animals showing regression
Description: A combination of a farnesyl transferase inhibitor, namely the compound identified as Compound 75 above (R115777), and an anti-estrogen agent, namely tamoxifen (TMX), was tested for anti-tumor activity in comparison with the activity of the individual components of the combination, as described below.
Female Nude-Homo NCRNU non-ovarectimized mice 8 weeks of age were fed ad libitum water and an irradiated standard rodent diet. Mice were housed in stable microisolators on a 12 hour light cycle at 21-22° C. and 40-60% humidity.
Mice were inoculated subcutaneously with 1×10^7 MCF7 human breast carcinoma cells in the flank. Tumors were monitored initially twice a week and then daily as neoplasms reached the desired size, approximately 100 mg. When the carcinomas reached a size between 62-144 mg in calculated tumor weight, the animals were pair matched into the various treatment groups (group mean tumor weights ranged from 83-85 mg).
Estimated tumor weight was calculated using the formula: [formula] […]
The tumor growth inhibition (TGI) endpoint was used in this study to assess the efficacy of the various treatments. The tumor burden endpoint was set at 1.0 g as measured by calliper. TGI values were determined on the last day of the study (Day 5), when all mice were under test, except those that had expired from treatment-related or procedural causes. […]

| Structure (SMILES) | Regression in Individual Animals (magnitude of tumor regression expressed as % reduction from pretreatment tumor size) (R115777 100 mg/kg, orally qd to end) | Regression in Individual Animals (magnitude of tumor regression expressed as % reduction from pretreatment tumor size) (TMX 1 mg/kg, s.c.) |
| --- | --- | --- |
| Cn1cncc1C(N)(c1ccc(Cl)cc1)c1ccc2c(c1)c(-c1cccc(Cl)c1)cc(=O)n2C (single isomer, unassigned; (+)) [Compound R115777, (+)-6-[amino(4-chlorophenyl)(1-methyl-1H-imidazol-5-yl)methyl]-4-(3-chlorophenyl)-1-methyl-2(1H)-quinolinone] | 93% and 100% |  |
| CC/C(=C(\c1ccccc1)c1ccc(OCCN(C)C)cc1)c1ccccc1 [TMX, tamoxifen] |  | 10% and 78% and 94% and 44% and 59% and 31% |
